Assay results published in ChEMBL document CHEMBL1201862, “PubChem BioAssay data set” (2004).
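Following 48 hours of exposure in 96-well plates, responses at five concentrations were used to interpolate endpoints linearly. GI50 marks 50% less growth.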 Active and inactive are the calls of the source. Cut-off read from the data, not from the text of the source: active = GI50 up to about 1.1 µM and inactive = higher.

Key:
Test in all cases: NCI tumour cell line growth inhibition, 48 h
786-0 = system: 786-0
EKVX = system: EKVX
TK-10 = system: TK-10
U-251 = system: U-251
HCC 2998 = system: HCC 2998
HCT-116 = system: HCT-116
SW-620 = system: SW-620
UO-31 = system: UO-31
OVCAR-8 = system: OVCAR-8
KM12 = system: KM12
CAKI-1 = system: CAKI-1
OVCAR-3 = system: OVCAR-3
HOP-62 = system: HOP-62
NCI/ADR-RES = system: NCI/ADR-RES
CCRF-CEM = system: CCRF-CEM
NCI-H522 = system: NCI-H522
HT-29 = system: HT-29
MOLT-4 = system: MOLT-4
HL-60 = system: HL-60
HOP-92 = system: HOP-92

Measured: GI50

N#Cc1cnn2cc[nH]c12
inactive: 786-0 > 100 µM | EKVX > 100 µM | TK-10 > 100 µM | U-251 > 100 µM | HCC 2998 > 100 µM | HCT-116 > 100 µM | SW-620 > 100 µM | UO-31 > 100 µM | OVCAR-8 > 100 µM | KM12 > 100 µM | CAKI-1 > 100 µM | OVCAR-3 > 100 µM | HOP-62 > 100 µM | NCI/ADR-RES > 100 µM | CCRF-CEM > 100 µM | NCI-H522 > 100 µM | HT-29 > 100 µM | MOLT-4 > 100 µM | HL-60 > 100 µM

O=Cc1ccc(OC[C@H]2COC(=O)N2)cc1
inactive: 786-0 > 100 µM | EKVX > 100 µM | TK-10 > 100 µM | U-251 > 100 µM | HCC 2998 56.5 µM | HCT-116 > 100 µM | SW-620 > 100 µM | UO-31 > 100 µM | OVCAR-8 > 100 µM | KM12 37.8 µM | CAKI-1 > 100 µM | OVCAR-3 > 100 µM | HOP-62 > 100 µM | NCI/ADR-RES > 100 µM | CCRF-CEM > 100 µM | NCI-H522 52.4 µM | HT-29 > 100 µM | MOLT-4 > 100 µM | HL-60 > 100 µM

O=c1c2cc([N+](=O)[O-])cnc2sn1-c1ccc([N+](=O)[O-])cc1
inactive: 786-0 40.4 µM | EKVX 40.3 µM | TK-10 > 100 µM | U-251 49.5 µM | HCC 2998 43.8 µM | HCT-116 23.7 µM | SW-620 32.1 µM | UO-31 52 µM | OVCAR-8 42.5 µM | KM12 26.4 µM | OVCAR-3 34.6 µM | HOP-62 52 µM | NCI/ADR-RES 28.9 µM | CCRF-CEM 34.8 µM | NCI-H522 7.28 µM | HT-29 21.8 µM | MOLT-4 32.1 µM | HL-60 26 µM

CCOC(=O)Nc1c(C#N)[n+]([O-])c2cc(Cl)c(Cl)cc2[n+]1[O-]
inactive: 786-0 15.6 µM | HOP-92 5.4 µM | TK-10 27.5 µM | U-251 14.3 µM | HCT-116 14 µM | SW-620 13.1 µM | UO-31 16.6 µM | OVCAR-8 13.4 µM | KM12 18.2 µM | CAKI-1 19.4 µM | OVCAR-3 20.1 µM | HOP-62 45.7 µM | NCI/ADR-RES 20.7 µM | CCRF-CEM 4.37 µM | HT-29 12 µM | MOLT-4 8.71 µM

CC(CS(=O)(=O)Cc1ccccc1)C(N)=O (centres undefined)
inactive: 786-0 > 100 µM | EKVX > 100 µM | HOP-92 > 100 µM | TK-10 > 100 µM | U-251 > 100 µM | HCT-116 > 100 µM | SW-620 > 100 µM | UO-31 > 100 µM | OVCAR-8 > 100 µM | KM12 > 100 µM | CAKI-1 > 100 µM | OVCAR-3 > 100 µM | HOP-62 > 100 µM | NCI/ADR-RES > 100 µM | NCI-H522 > 100 µM | HT-29 > 100 µM | MOLT-4 > 100 µM | HL-60 > 100 µM

C=C=C(C)[Si](C)(C)C
inactive: 786-0 > 100 µM | TK-10 > 100 µM | U-251 > 100 µM | HCC 2998 > 100 µM | HCT-116 > 100 µM | SW-620 90.6 µM | UO-31 > 100 µM | OVCAR-8 > 100 µM | KM12 > 100 µM | CAKI-1 > 100 µM | OVCAR-3 > 100 µM | HOP-62 > 100 µM | NCI/ADR-RES > 100 µM | CCRF-CEM > 100 µM | NCI-H522 > 100 µM | HT-29 > 100 µM | MOLT-4 > 100 µM | HL-60 23.7 µM

O=C(Nc1ccccc1F)c1cc2ccc(O)cc2o/c1=N\c1cccc(F)c1
inactive: 786-0 15 µM | EKVX 11.1 µM | U-251 12.4 µM | HCC 2998 15.3 µM | HCT-116 11.1 µM | SW-620 9.04 µM | UO-31 13 µM | OVCAR-8 9.48 µM | KM12 12.6 µM | CAKI-1 19.5 µM | OVCAR-3 11.5 µM | HOP-62 19 µM | NCI/ADR-RES 12.8 µM | CCRF-CEM 3.31 µM | NCI-H522 2.37 µM | HT-29 37.5 µM | MOLT-4 4.41 µM | HL-60 5.28 µM

CCOC(=O)/C(C#N)=C/c1ccc(CO)o1
inactive: 786-0 > 100 µM | EKVX > 100 µM | TK-10 > 100 µM | U-251 > 100 µM | HCC 2998 > 100 µM | HCT-116 > 100 µM | SW-620 > 100 µM | OVCAR-8 > 100 µM | KM12 > 100 µM | CAKI-1 > 100 µM | OVCAR-3 > 100 µM | HOP-62 > 100 µM | NCI/ADR-RES > 100 µM | NCI-H522 > 100 µM | HT-29 > 100 µM | MOLT-4 > 100 µM

NCCSc1nc(-c2ccccc2)c(-c2ccccc2)o1
inactive: 786-0 32.1 µM | EKVX > 100 µM | HOP-92 > 100 µM | TK-10 15.3 µM | U-251 > 100 µM | HCT-116 37.1 µM | SW-620 > 100 µM | UO-31 > 100 µM | OVCAR-8 > 100 µM | KM12 > 100 µM | CAKI-1 > 100 µM | OVCAR-3 > 100 µM | HOP-62 > 100 µM | NCI/ADR-RES > 100 µM | NCI-H522 29.6 µM | HT-29 31.7 µM

O=[N+]([O-])c1cc2c(cc1/C=N/n1c(CO)nc3ccccc31)OCO2
inactive: 786-0 > 100 µM | EKVX > 100 µM | HOP-92 > 100 µM | TK-10 > 100 µM | U-251 > 100 µM | HCT-116 > 100 µM | SW-620 > 100 µM | UO-31 > 100 µM | OVCAR-8 > 100 µM | KM12 > 100 µM | CAKI-1 > 100 µM | OVCAR-3 > 100 µM | HOP-62 > 100 µM | NCI/ADR-RES > 100 µM | CCRF-CEM > 100 µM | HT-29 > 100 µM | MOLT-4 > 100 µM | HL-60 > 100 µM

COCC1OCCN1C (centres undefined)
inactive: 786-0 > 100 µM | EKVX > 100 µM | HOP-92 > 100 µM | TK-10 > 100 µM | U-251 > 100 µM | HCT-116 > 100 µM | SW-620 > 100 µM | UO-31 > 100 µM | OVCAR-8 > 100 µM | KM12 88.3 µM | CAKI-1 > 100 µM | OVCAR-3 > 100 µM | HOP-62 > 100 µM | NCI/ADR-RES > 100 µM | CCRF-CEM > 100 µM | NCI-H522 > 100 µM | HT-29 > 100 µM | MOLT-4 > 100 µM
